Experimental data: US20260223850A1, “SUBSTITUTED PYRROLIDONE COMPOUND, PREPARATION METHOD THEREFOR, COMPOSITION AND APPLICATION THEREOF” (QINGDAO KINGAGROOT CHEMICAL COMPOUND CO., LTD., priority 2023, published 2026)

Key:
Format in all cases: in vivo
Huaidao (rice cultivar) = assay: Seedling stage sealing experiment for water-seeding (crop safety); conditions: 120 g a.i./ha, 15 days, fresh weight control rate; for Huaidao (rice cultivar) plant damage level: seedling stage sealing; for Huaidao (rice cultivar) plant damage level (growth control rate): spray, seedling stage sealing for water-seeding
Text: (§1) The activity level criteria for plant damage (i.e., growth control rate) are as follows: • Level 9: completely dead; • Level 8: growth control rate greater than or equal to 90% and less than 100%; • Level 7: growth control rate greater than or equal to 80% and less than 90%; • Level 6: growth control rate greater than or equal to 70% and less than 80%; • Level 5: growth control rate greater than or equal to 50% and less than 70%; • Level 4: growth control rate greater than or equal to 30% and less than 50%; • Level 3: growth control rate greater than or equal to 20% and less than 30%; • Level 2: growth control rate greater than or equal to 10% and less than 20%; • Level 1: growth control rate less than 10%; • Level 0: no effect.
(§2) The above growth control rates are fresh weight control rates.
(§3) Echinochloa phyllopogon, Digitaria sanguinalis, Huaidao (rice cultivar), etc. were broadcasted on the surface of nutrition bowls filled with soil and fully covered by soil. The foregoing well-prepared nutrition bowls were then placed in a cultivation box with water filled to a suitable height to keep the soil in the nutrition bowls moist. A test compound of the present invention was individually dissolved with acetone, then diluted into solution of a certain concentration using a certain amount of water, and sprayed using a spray tower. The plants were placed on a greenhouse seedbed and cultured for 15 days, and the experimental results were then collected. The compound was applied at 120, 60, 30 and 15 g a.i./ha in triplicate, and the results were averaged.

Echinochloa crusgalli = assay: Seedling stage sealing experiment for water-seeding; conditions: 120 g a.i./ha, 15 days, fresh weight control rate
Text: as §1, §2, §3

Echinochloa phyllopogon = assay: as above; conditions: 120 g a.i./ha, 15 days, fresh weight control rate
Text: as §1, §2, §3

[1] = spray, seedling stage sealing for water-seeding

Structure (SMILES)	Huaidao (rice cultivar) plant damage level (Huaidao (rice cultivar))	Echinochloa crusgalli activity level (growth control rate) (Echinochloa crusgalli; seedling stage sealing)	Echinochloa phyllopogon activity level (growth control rate) (Echinochloa phyllopogon; seedling stage sealing)	Huaidao (rice cultivar) plant damage level (growth control rate) (Huaidao (rice cultivar))	Echinochloa crusgalli activity level (growth control rate) (Echinochloa crusgalli; [1])	Echinochloa phyllopogon activity level (growth control rate) (Echinochloa phyllopogon; [1])
Cc1cc(C)cc([C@H]2CN(C)C(=O)[C@@H]2C(=O)Nc2cnn(C(C)C)c2Cl)c1 [419′]	0	9	9			
COCCn1ncc(NC(=O)[C@H]2C(=O)N(C)C[C@@H]2c2cc(C)cc(C)c2)c1Cl [423′]	0	9	6 (Level 6: growth control rate greater than or equal to 70% and less than 80%)			
COc1cccc([C@H]2CN(C)C(=O)[C@@H]2C(=O)Nc2cnn(C)c2C(F)(F)F)c1 [485′]				0	9	9
CCc1ccc([C@H]2CN(C)C(=O)[C@@H]2C(=O)Nc2cnn(C)c2Cl)s1 [338′]	0	9	6 (Level 6: growth control rate greater than or equal to 70% and less than 80%)			
Cc1cc(C)cc([C@H]2CN(C)C(=O)[C@@H]2C(=O)Nc2cnn(C)c2C)c1 [272′]	0	9	7 (Level 7: growth control rate greater than or equal to 80% and less than 90%)			
COCc1c(NC(=O)[C@H]2C(=O)N(C)C[C@@H]2c2cccc(C)c2)cnn1C [378′]	0	9	6 (Level 6: growth control rate greater than or equal to 70% and less than 80%)			
CCc1c(NC(=O)[C@H]2C(=O)N(C)C[C@@H]2c2cc(C)cc(C)c2)cnn1C [273′]	0	9	6 (Level 6: growth control rate greater than or equal to 70% and less than 80%)			
CCn1ncc(NC(=O)[C@H]2C(=O)N(C)C[C@@H]2c2cc(C)cc(C)c2)c1C1CC1 [432′]	0	9	9			
CC(C)n1ncc(NC(=O)[C@H]2C(=O)N(C)C[C@@H]2c2cccc(C(F)(F)F)c2)c1Cl [97′]	0	9	9			
CN1C[C@H](c2cc(Cl)c(Cl)c(C(F)(F)F)c2)[C@@H](C(=O)Nc2cnn(C)c2Cl)C1=O [326′]	0	8 (Level 8: growth control rate greater than or equal to 90% and less than 100%)	7 (Level 7: growth control rate greater than or equal to 80% and less than 90%)			
CN1C[C@H](c2cccc(C3CC3)c2)[C@@H](C(=O)Nc2cnn(C(F)F)c2Cl)C1=O [413′]	0	9	9			
C#CCn1ncc(NC(=O)[C@H]2C(=O)N(C)C[C@@H]2c2cccc(C(F)(F)F)c2)c1Cl [163′]	0	9	8 (Level 8: growth control rate greater than or equal to 90% and less than 100%)			
C=Cc1c(NC(=O)[C@H]2C(=O)N(C)C[C@@H]2c2cccc(C)c2)cnn1C [137′]	0	6 (Level 6: growth control rate greater than or equal to 70% and less than 80%)	5 (Level 5: growth control rate greater than or equal to 50% and less than 70%)			
Cc1cc(C)cc([C@H]2CN(C)C(=O)[C@@H]2C(=O)Nc2cnn(C)c2S(C)(=O)=O)c1 [498′]				0	9	9
CN1C[C@H](c2cccc3c2OC(F)(F)O3)[C@@H](C(=O)Nc2cnn(C)c2Cl)C1=O [450′]				0	9	9
Cc1ccc([C@H]2CN(C)C(=O)[C@@H]2C(=O)Nc2cnn(C(F)F)c2Cl)cc1 [486′]				2 (Level 2: growth control rate greater than or equal to 10% and less than 20%)	9	9

Structure (SMILES)	Huaidao (rice cultivar) plant damage level (Huaidao (rice cultivar))	Echinochloa crusgalli activity level (growth control rate) (Echinochloa crusgalli; seedling stage sealing)	Echinochloa phyllopogon activity level (growth control rate) (Echinochloa phyllopogon; seedling stage sealing)	Huaidao (rice cultivar) plant damage level (growth control rate) (Huaidao (rice cultivar))	Echinochloa crusgalli activity level (growth control rate) (Echinochloa crusgalli; [1])	Echinochloa phyllopogon activity level (growth control rate) (Echinochloa phyllopogon; [1])
Cc1cc([C@H]2CN(C)C(=O)[C@@H]2C(=O)Nc2cnn(C)c2Cl)cc(C(F)(F)F)c1 [69′]	1 (Level 1: growth control rate less than 10%)	9	9			
C=CCn1ncc(NC(=O)[C@H]2C(=O)N(C)C[C@@H]2c2cccc(C)c2)c1Cl [381′]	0	9	6 (Level 6: growth control rate greater than or equal to 70% and less than 80%)			
Cc1ccc([C@H]2CN(C)C(=O)[C@@H]2C(=O)Nc2cnn(C(F)F)c2Cl)cc1C [487′]				2 (Level 2: growth control rate greater than or equal to 10% and less than 20%)	9	9
Cc1cc(C)cc([C@H]2CNC(=O)[C@@H]2C(=O)Nc2cnn(C)c2Cl)c1 [416′]	0	9	6 (Level 6: growth control rate greater than or equal to 70% and less than 80%)			
Cc1cc(C)cc([C@H]2CN(C)C(=O)[C@@H]2C(=O)Nc2cnn(CC(F)(F)F)c2Cl)c1 [268′]	0	7 (Level 7: growth control rate greater than or equal to 80% and less than 90%)	6 (Level 6: growth control rate greater than or equal to 70% and less than 80%)			
CN1C[C@H](c2cccc(C(F)(F)F)c2)[C@@H](C(=O)Nc2cnn(C)c2C(F)F)C1=O [478′]				0	9	9
Cc1cccc([C@H]2CN(C)C(=O)[C@@H]2C(=O)Nc2cnn(C)c2F)c1 [388′]	0	9	6 (Level 6: growth control rate greater than or equal to 70% and less than 80%)			
Cc1cc(C)cc([C@H]2CN(C)C(=O)[C@@H]2C(=O)Nc2cnn(C)c2I)c1 [426′]	0	9	9			
Cc1cccc([C@H]2CN(C)C(=O)[C@@H]2C(=O)Nc2cnn(C(C)C)c2C2CC2)c1 [138′]	0	7 (Level 7: growth control rate greater than or equal to 80% and less than 90%)	6 (Level 6: growth control rate greater than or equal to 70% and less than 80%)			
CN1C[C@H](c2cccc(C(F)(F)F)c2)[C@@H](C(=O)Nc2cnn(C)c2C#N)C1=O [187′]	0	9	9			
CCn1ncc(NC(=O)[C@H]2C(=O)N(C)C[C@@H]2c2cccc(C)c2)c1Cl [385′]	2 (Level 2: growth control rate greater than or equal to 10% and less than 20%)	9	9			
Cc1cc(Cl)cc([C@H]2CN(C)C(=O)[C@@H]2C(=O)Nc2cnn(C(F)F)c2Cl)c1 [505′]				2 (Level 2: growth control rate greater than or equal to 10% and less than 20%)	9	9
CN1C[C@H](c2cc(Br)cc(C(F)F)c2)[C@@H](C(=O)Nc2cnn(C)c2Cl)C1=O [511′]				0	9	6 (Level 6: growth control rate greater than or equal to 70% and less than 80%)
Cc1cc(Cl)cc([C@H]2CN(C)C(=O)[C@@H]2C(=O)Nc2cnn(C)c2C2CC2)c1 [506′]				0	9	9
CN1C[C@H](c2cccc(C(F)(F)F)c2)[C@@H](C(=O)Nc2cnn(C)c2F)C1=O [119′]	0	9	9			
Cc1cc(C)cc([C@H]2CN(C)C(=O)[C@@H]2C(=O)Nc2cnn(C)c2C(F)(F)F)c1 [427′]	2 (Level 2: growth control rate greater than or equal to 10% and less than 20%)	9	9			
